Experimental data from patent US9518061B2, “Substituted pyrazolylpyrazole derivative and use of same as herbicide” (KYOYU AGRI CO., LTD., priority 2013, dated 2016).

What was measured:
Amaranthus retroflexus [1] = experiment: Farming soil treatment test; assay type: in vivo; conditions: soil surface spray prior to weed growth, 30 days
Protocol: (§1) 2. Farming Soil Treatment Test
(§2) Field soil was filled into a 1/6000 are pot followed by seeding with Digitaria ciliaris, Chenopodium album and Amaranthus retroflexus and covering with soil.
(§3) Wettable powder of compounds of formula (D shown in Table 1 prepared in compliance with the preparation examples were diluted with water to the prescribed amount of chemical and uniformly sprayed onto each soil surface layer using 10 liters of sprayed water per are prior to weed growth following seeding.
(§4) After treating for 30 days in a glass greenhouse at an average atmospheric temperature of 30° C., the herbicidal efficacy thereof was investigated.
(§5) Evaluation of herbicidal efficacy was carried out in the same manner as the above-mentioned Test Example 1.

Chenopodium album [2] = experiment: Farming soil treatment test; assay type: in vivo; conditions: soil surface spray prior to weed growth, 30 days
Protocol: as §1, §2, §3, §4, §5

Digitaria ciliaris [3] = experiment: Farming soil treatment test; assay type: in vivo; conditions: soil surface spray prior to weed growth, 30 days
Protocol: as §1, §2, §3, §4, §5

Echinochloa crus-galli = experiment: Paddy herbicidal activity test; assay type: in vivo; conditions: irrigated paddy pot, treated at 3.5 leaf stage of Echinochloa crus-galli, 30 days
Protocol: (§6) 1. Paddy Herbicidal Activity Test
(§7) Rice paddy soil was filled into a 1/10000 are pot followed by the addition of suitable amounts of water and chemical fertilizer, kneading, seeding with Echinochloa crus-galli, Monochoria vaginalis and Scirpus juncoides and maintaining in an irrigated state at a water depth of 3 cm.
(§8) Wettable powder of Target Compound (I) shown in Table 1 prepared in compliance with the preparation examples were diluted with a suitable amount of water, rice plants in the 2.0 leaf stage were transplanted during 3.5 leaf stage of Echinochloa crus-galli, and treated by dropping in chemical in the prescribed amount per are using a pipette.
as §4
(§9) Evaluation of herbicidal efficacy was carried out by comparing growth inhibition rate (%) with an untreated group, while evaluation of phytotoxicity was carried out by comparing growth inhibition rate (%) with the state of a complete eradication group, and were evaluated at 11 levels indicated below.

Scirpus juncoides = experiment: Paddy herbicidal activity test; assay type: in vivo; conditions: irrigated paddy pot, 30 days
Protocol: as §6, §7, §8, §4, §9

Monochoria vaginalis = experiment: Paddy herbicidal activity test; assay type: in vivo; conditions: irrigated paddy pot, 30 days
Protocol: as §6, §7, §8, §4, §9

Amaranthus retroflexus [4] = experiment: Weed foliar treatment test; assay type: in vivo; conditions: foliar spray, 3 weeks
Protocol: (§10) 3. Weed Foliar Treatment Test
(§11) Soil was filled into a 1/6000 are pot followed by seeding with Digitaria ciliaris, Chenopodium album and Amaranthus retroflexus, covering with soil, and cultivating in a glass greenhouse at an average atmospheric temperature of 25° C.
(§12) Wettable powder of Target Compound (I) shown in Table 1 prepared in compliance with the preparation examples were diluted with water to the prescribed amount of chemical and uniformly sprayed onto the weeds using 15 liters of sprayed water per are when Digitaria ciliaris had grown to the 1.0 to 2.0 leaf stage.
(§13) After treating for 3 weeks in a glass greenhouse at an average atmospheric temperature of 25° C., the herbicidal efficacy thereof was investigated.
as §5

Chenopodium album [5] = experiment: Weed foliar treatment test; assay type: in vivo; conditions: foliar spray, 3 weeks
Protocol: as §10, §11, §12, §13, §5

Digitaria ciliaris [6] = experiment: Weed foliar treatment test; assay type: in vivo; conditions: foliar spray at 1.0 to 2.0 leaf stage of Digitaria ciliaris, 3 weeks
Protocol: as §10, §11, §12, §13, §5

Rice plants = experiment: Paddy herbicidal activity test, phytotoxicity to transplanted rice; assay type: in vivo; conditions: rice transplanted in 2.0 leaf stage, 30 days
Protocol: as §6, §7, §8, §4, §9

| Structure (SMILES) | herbicidal efficacy (growth inhibition rate level) Amaranthus retroflexus (Amaranthus retroflexus [1]; 5g a.i./10a) | herbicidal efficacy (growth inhibition rate level) Amaranthus retroflexus (Amaranthus retroflexus [1]; 10g a.i./10a) | herbicidal efficacy (growth inhibition rate level) Chenopodium album (Chenopodium album [2]; 5g a.i./10a) | herbicidal efficacy (growth inhibition rate level) Chenopodium album (Chenopodium album [2]; 10g a.i./10a) | herbicidal efficacy (growth inhibition rate level) Digitaria ciliaris (Digitaria ciliaris [3]; 5g a.i./10a) | herbicidal efficacy (growth inhibition rate level) Digitaria ciliaris (Digitaria ciliaris [3]; 10g a.i./10a) | herbicidal efficacy (growth inhibition rate level) Echinochloa crus-galli (Echinochloa crus-galli; 1g a.i./10a) | herbicidal efficacy (growth inhibition rate level) Echinochloa crus-galli (Echinochloa crus-galli; 5g a.i./10a) | herbicidal efficacy (growth inhibition rate level) Scirpus juncoides (Scirpus juncoides; 1g a.i./10a) | herbicidal efficacy (growth inhibition rate level) Scirpus juncoides (Scirpus juncoides; 5g a.i./10a) | herbicidal efficacy (growth inhibition rate level) Monochoria vaginalis (Monochoria vaginalis; 1g a.i./10a) | herbicidal efficacy (growth inhibition rate level) Monochoria vaginalis (Monochoria vaginalis; 5g a.i./10a) | herbicidal efficacy (growth inhibition rate level) Amaranthus retroflexus (Amaranthus retroflexus [4]; 5g a.i./10a) | herbicidal efficacy (growth inhibition rate level) Amaranthus retroflexus (Amaranthus retroflexus [4]; 10g a.i./10a) | herbicidal efficacy (growth inhibition rate level) Chenopodium album (Chenopodium album [5]; 5g a.i./10a) | herbicidal efficacy (growth inhibition rate level) Chenopodium album (Chenopodium album [5]; 10g a.i./10a) | herbicidal efficacy (growth inhibition rate level) Digitaria ciliaris (Digitaria ciliaris [6]; 5g a.i./10a) | herbicidal efficacy (growth inhibition rate level) Digitaria ciliaris (Digitaria ciliaris [6]; 10g a.i./10a) | phytotoxicity (growth inhibition rate level) Rice plants (Rice plants; 1g a.i./10a) | phytotoxicity (growth inhibition rate level) Rice plants (Rice plants; 5g a.i./10a) | also measured |
| --- | --- | --- | --- | --- | --- | --- | --- | --- | --- | --- | --- | --- | --- | --- | --- | --- | --- | --- | --- | --- | --- |
| N#Cc1cnn(-c2nn3c(c2Cl)CCCC3)c1NCCCl [Control agent 4.92] | 3 (30% to less than 40%) | 4 (40% to less than 50%) | 4 (40% to less than 50%) | 5 (50% to less than 60%) | 2 (20% to less than 30%) | 3 (30% to less than 40%) | 1 (10% to less than 20%) | 2 (20% to less than 30%) | 2 (20% to less than 30%) | 4 (40% to less than 50%) | 0 (0 (exponent): 0% to less than 10% (growth inhibition rate)) | 1 (10% to less than 20%) | 4 (40% to less than 50%) | 5 (50% to less than 60%) | 3 (30% to less than 40%) | 6 (60% to less than 70%) | 4 (40% to less than 50%) | 5 (50% to less than 60%) | 0 (0 (exponent): 0% to less than 10% (growth inhibition rate)) | 1 (10% to less than 20%) |  |
| COCCN(C(=O)C(F)(F)F)c1c(C#N)cnn1-c1nn2c(c1Cl)CCCC2 [Compound 2, N-(1-(3-chloro-4,5,6,7-tetrahydropyrazolo[1,5-a]pyridin-2-yl)-4-cyanopyrazol-5-yl)-N-(2-methoxyethyl)-2,2,2-trifluoroacetamide] | 10 (100%) | 10 (100%) | 10 (100%) | 10 (100%) | 10 (100%) | 10 (100%) | 9 (90% to less than 100%) | 9 (90% to less than 100%) | 9 (90% to less than 100%) | 9 (90% to less than 100%) | 8 (80% to less than 90%) | 9 (90% to less than 100%) | 10 (100%) | 10 (100%) | 10 (100%) | 10 (100%) | 10 (100%) | 10 (100%) | 0 (0 (exponent): 0% to less than 10% (growth inhibition rate)) | 1 (10% to less than 20%) | melting point: 102 to 103 °C |
| CCN(C(=O)C(F)(F)F)c1c(C#N)cnn1-c1nn2c(c1Cl)CCCC2 [Control agent 4.238] | 4 (40% to less than 50%) | 5 (50% to less than 60%) | 4 (40% to less than 50%) | 5 (50% to less than 60%) | 5 (50% to less than 60%) | 6 (60% to less than 70%) | 2 (20% to less than 30%) | 4 (40% to less than 50%) | 2 (20% to less than 30%) | 3 (30% to less than 40%) | 0 (0 (exponent): 0% to less than 10% (growth inhibition rate)) | 1 (10% to less than 20%) | 5 (50% to less than 60%) | 6 (60% to less than 70%) | 4 (40% to less than 50%) | 6 (60% to less than 70%) | 4 (40% to less than 50%) | 5 (50% to less than 60%) | 2 (20% to less than 30%) | 2 (20% to less than 30%) |  |
| N#Cc1cnn(-c2nn3c(c2Cl)CCCC3)c1NC(=O)C(F)(F)F [Control agent 4.185] | 5 (50% to less than 60%) | 6 (60% to less than 70%) | 4 (40% to less than 50%) | 5 (50% to less than 60%) | 3 (30% to less than 40%) | 5 (50% to less than 60%) | 2 (20% to less than 30%) | 4 (40% to less than 50%) | 5 (50% to less than 60%) | 6 (60% to less than 70%) | 0 (0 (exponent): 0% to less than 10% (growth inhibition rate)) | 0 (0 (exponent): 0% to less than 10% (growth inhibition rate)) | 6 (60% to less than 70%) | 6 (60% to less than 70%) | 5 (50% to less than 60%) | 6 (60% to less than 70%) | 4 (40% to less than 50%) | 6 (60% to less than 70%) | 2 (20% to less than 30%) | 2 (20% to less than 30%) |  |
